The record followed here is patent US8835411B2, “HIV integrase inhibitors” (priority 2010, dated 2014).

This experiment has as its system recombinant NL-Rluc virus. As to the kind of experiment: Inhibition of HIV Replication: recombinant NL-Rluc virus, Renilla luciferase reporter. In kind it is cell-based. To be noted: read-out: Cell Culture, serum condition of the table not stated (10% FBS, 15 mg/ml human serum albumin/10% FBS or 40% human serum/5% FBS), at least 2 experiments. On the technique in general: In a reporter assay the amount or activity of a reporter protein is the signal.

Some results are limits rather than exact numbers.

`CC(=O)NC12CCC(NC(=O)C(=O)N(C)C)(CC1)c1nc(C(=O)NCc3ccc(F)c(C)c3)c(O)c(=O)n1C2` [Example 90]: the EC50 is less than 10 nM.
